Test results published in patent publication US10766869B2, “Triazoles for the treatment of demyelinating dieases” (Vertex Pharmaceuticals Incorporated, priority 2015, dated 2020).
Read-outs that look alike come from different tables or passages of the source.

System: primary rat mixed cortical cells
Assay: In vitro myelination assay (MBP positive myelin strands, fold myelin pixels above background)
Assay type: cell-based
Conditions: for fold induction at 1 µM / fold induction at 10 µM: Rattus norvegicus
Procedure, shortened: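 Read-out is total MBP-positive myelin strand pixels per well, detected by custom ridge-tracing software and reported as fold over untreated baseline. Primary P1 rat mixed cortical cells received compound (1.0 or 10.0 μM) for 14 days, with medium half-replaced on days 6 and 10. Standard deviation was taken across all replicates.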

[1] = 1.0 μM compound, relative to baseline of no added compound, read-out: Fold myelin pixels above background, 1.0 μM
[2] = 10.0 μM compound, relative to baseline of no added compound, read-out: Fold myelin pixels above background, 10.0 μM
[3] = 1.0 μM compound, read-out: Fold myelin pixels above background relative to baseline of no added compound
[4] = 10.0 μM compound, read-out: Fold myelin pixels above background relative to baseline of no added compound
[5] = 1.0 μM compound, relative to baseline of no added compound, read-out: Fold myelin pixels above background
[6] = 10.0 μM compound, relative to baseline of no added compound, read-out: Fold myelin pixels above background

Compound: Cc1cc(Nc2ncn(-c3cc(F)cc(F)c3)n2)cc(N2CCN(C3CCCOC3)CC2)c1 (stereo not shown) [Compound 199, 1-(3,5-difluorophenyl)-N-[3-methyl-5-(4-tetrahydropyran-3-ylpiperazin-1-yl)phenyl]-1,2,4-triazol-3-amine]
- fold induction at 1 µM [1]: 100 to 1000
- fold induction at 10 µM [2]: 100 to 1000

Compound: Fc1cc(F)cc(-n2cnc(Nc3cc(N4CCN(C5COC5)CC4)cc(F)n3)n2)c1 [Compound 847, N-[1-(3,5-difluorophenyl)-1,2,4-triazol-3-yl]-6-fluoro-4-[4-(oxetan-3-yl)piperazin-1-yl]pyridin-2-amine]
- fold induction at 1 µM [3]: 1 to 10
- fold induction at 10 µM [4]: 1 to 10

Compound: Cc1cc(F)cc(-n2cnc(Nc3cc(C4CC4)cc(N4CCN(C5COC5)CC4)c3)n2)c1 [Compound 73, N-[3-cyclopropyl-5-[4-(oxetan-3-yl)piperazin-1-yl]phenyl]-1-(3-fluoro-5-methyl-phenyl)-1,2,4-triazol-3-amine]
- fold induction at 1 µM [1]: 100 to 1000
- fold induction at 10 µM [2]: ≤ 1

Compound: Cc1cc(Nc2ncn(-c3cc(F)cc(F)c3)n2)cc(N2CCC(CCCO)CC2)c1 [Compound 877, 3-[1-[3-[[1-(3,5-difluorophenyl)-1,2,4-triazol-3-yl]amino]-5-methyl-phenyl]-4-piperidyl]propan-1-ol]
- fold induction at 1 µM [3]: 1 to 10
- fold induction at 10 µM [4]: 1 to 10

Compound: Cc1cc(Nc2ncn(-c3cc(C)ccc3F)n2)cc(N2CCN(C3COC3)CC2)c1 [Compound 476, 1-(2-fluoro-5-methyl-phenyl)-N-[3-methyl-5-[4-(oxetan-3-yl)piperazin-1-yl]phenyl]-1,2,4-triazol-3-amine]
- fold induction at 1 µM [5]: 10 to 100
- fold induction at 10 µM [6]: 10 to 100

Compound: Cc1cc(Nc2ncn(-c3cccc(F)c3)n2)cc(NC2CCN(C3COC3)C2)c1 (stereo not shown) [Compound 188, N3-[1-(3-fluorophenyl)-1,2,4-triazol-3-yl]-5-methyl-N1-[1-(oxetan-3-yl)pyrrolidin-3-yl]benzene-1,3-diamine]
- fold induction at 1 µM [1]: 100 to 1000
- fold induction at 10 µM [2]: ≤ 1

Compound: Cc1cc(Nc2ncn(-c3cc(F)cc(F)c3)n2)cc(N2CCN(C3CCOC3)CC2)c1 (stereo not shown) [Compound 137, 1-(3,5-difluorophenyl)-N-[3-methyl-5-(4-tetrahydrofuran-3-ylpiperazin-1-yl)phenyl]-1,2,4-triazol-3-amine]
- fold induction at 1 µM [1]: 1000 to 10000
- fold induction at 10 µM [2]: 100 to 1000

Compound: Cc1cc(Nc2ncn(-c3cc(F)cc(F)c3)n2)cc(N2CCOC(COC(C)C)C2)c1 (stereo not shown) [Compound 927, 1-(3,5-difluorophenyl)-N-[3-[2-(isopropoxymethyl)morpholin-4-yl]-5-methyl-phenyl]-1,2,4-triazol-3-amine]
- fold induction at 1 µM [3]: 10 to 100
- fold induction at 10 µM [4]: 1 to 10

Compound: COC(=O)N1CCCC(c2cc(C)cc(Nc3ncn(-c4ccccc4)n3)c2)C1 (stereo not shown) [Compound 143, methyl 3-[3-methyl-5-[(1-phenyl-1,2,4-triazol-3-yl)amino]phenyl]piperidine-1-carboxylate]
- fold induction at 1 µM [1]: 1000 to 10000
- fold induction at 10 µM [2]: 1000 to 10000

Compound: Fc1cc(-n2cnc(Nc3cc(C4CC4)cc(N4CCN(C5COC5)CC4)c3)n2)cc(F)n1 [Compound 121, N-[3-cyclopropyl-5-[4-(oxetan-3-yl)piperazin-1-yl]phenyl]-1-(2,6-difluoro-4-pyridyl)-1,2,4-triazol-3-amine]
- fold induction at 1 µM [1]: 100 to 1000
- fold induction at 10 µM [2]: ≤ 1

Compound: CCc1cc(Nc2ncn(-c3ccnc(C)n3)n2)cc(N2CCN(C3COC3)CC2)c1 [Compound 91, N-[3-ethyl-5-[4-(oxetan-3-yl)piperazin-1-yl]phenyl]-1-(2-methylpyrimidin-4-yl)-1,2,4-triazol-3-amine]
- fold induction at 1 µM [1]: ≤ 1
- fold induction at 10 µM [2]: 100 to 1000

Compound: FC(F)c1cccc(-n2cnc(Nc3cc(C(F)F)cc(N4CC(N5CCOCC5)C4)n3)n2)c1 [Compound 756, 4-(difluoromethyl)-N-[1-[3-(difluoromethyl)phenyl]-1,2,4-triazol-3-yl]-6-(3-morpholinoazetidin-1-yl)pyridin-2-amine]
- fold induction at 1 µM [5]: 1 to 10
- fold induction at 10 µM [6]: 10 to 100

Compound: Cc1cc(Nc2ncn(-c3cc(F)cc(F)c3)n2)cc(N2CCC(CCO)CC2)c1 [Compound 874, 2-[1-[3-[[1-(3,5-difluorophenyl)-1,2,4-triazol-3-yl]amino]-5-methyl-phenyl]-4-piperidyl]ethanol]
- fold induction at 1 µM [3]: 10 to 100
- fold induction at 10 µM [4]: ≤ 1

Compound: COc1ccc(-n2cnc(Nc3cc(C4CC4)nc(N4CCC(C)CC4)c3)n2)cc1OC [Compound 22, 2-cyclopropyl-N-[1-(3,4-dimethoxyphenyl)-1,2,4-triazol-3-yl]-6-(4-methyl-1-piperidyl)pyridin-4-amine]
- fold induction at 1 µM [1]: 100 to 1000
- fold induction at 10 µM [2]: 100 to 1000

Compound: F[C@@H]1CCN(c2cc(Nc3ncn(-c4ccccc4)n3)cc(C3CC3)n2)C1 [Compound 296, 2-cyclopropyl-6-[(3R)-3-fluoropyrrolidin-1-yl]-N-(1-phenyl-1,2,4-triazol-3-yl)pyridin-4-amine]
- fold induction at 1 µM [1]: 100 to 1000
- fold induction at 10 µM [2]: 10 to 100

Compound: Cc1cc(Nc2ncn(-c3cccnc3)n2)c(F)c(N2CCN(C3COC3)CC2)c1 [Compound 1022, N-[2-fluoro-5-methyl-3-[4-(oxetan-3-yl)piperazin-1-yl]phenyl]-1-(3-pyridyl)-1,2,4-triazol-3-amine]
- fold induction at 1 µM [3]: 1 to 10
- fold induction at 10 µM [4]: 10 to 100

Compound: Cc1cc(Nc2ncn(-c3cc(F)cc(F)c3)n2)cc(N2CCN(C3CCN(C)CC3)CC2)c1 [Compound 956, 1-(3,5-difluorophenyl)-N-[3-methyl-5-[4-(1-methyl-4-piperidyl)piperazin-1-yl]phenyl]-1,2,4-triazol-3-amine]
- fold induction at 1 µM [3]: ≤ 1
- fold induction at 10 µM [4]: ≤ 1

Compound: COCC1CCN(c2cc(C(F)(F)F)cc(Nc3ncn(-c4cc(F)cc(F)c4)n3)n2)CC1 [Compound 839, N-[1-(3,5-difluorophenyl)-1,2,4-triazol-3-yl]-6-[4-(methoxymethyl)-1-piperidyl]-4-(trifluoromethyl)pyridin-2-amine]
- fold induction at 1 µM [3]: 1 to 10
- fold induction at 10 µM [4]: ≤ 1

Compound: CN1CCN(c2cc(Nc3ncn(-c4ccccc4)n3)cc(Cl)n2)CC1 [Compound 367, 2-chloro-6-(4-methylpiperazin-1-yl)-N-(1-phenyl-1,2,4-triazol-3-yl)pyridin-4-amine]
- fold induction at 1 µM [1]: 100 to 1000
- fold induction at 10 µM [2]: 100 to 1000

Compound: Cc1cc(Nc2ncn(-c3cc(F)cc(F)c3)n2)cc(N2CCn3ccnc3C2)c1 [Compound 19, 1-(3,5-difluorophenyl)-N-[3-(6,8-dihydro-5H-imidazo[1,2-a]pyrazin-7-yl)-5-methyl-phenyl]-1,2,4-triazol-3-amine]
- fold induction at 1 µM [1]: 10 to 100
- fold induction at 10 µM [2]: 1 to 10

Compound: Cc1cc(Nc2ncn(-c3cc(F)cc(F)c3)n2)cc(OCC2(C)COC2)c1 [Compound 677, 1-(3,5-difluorophenyl)-N-[3-methyl-5-[(3-methyloxetan-3-yl)methoxy]phenyl]-1,2,4-triazol-3-amine]
- fold induction at 1 µM [5]: 100 to 1000
- fold induction at 10 µM [6]: ≤ 1

Compound: Cc1cc(Nc2ncn(-c3cc(F)cc(F)c3)n2)cc(N2CCN(C3CCCN(C)C3)CC2)c1 (stereo not shown) [Compound 892, 1-(3,5-difluorophenyl)-N-[3-methyl-5-[4-(1-methyl-3-piperidyl)piperazin-1-yl]phenyl]-1,2,4-triazol-3-amine]
- fold induction at 1 µM [3]: 1 to 10
- fold induction at 10 µM [4]: ≤ 1

Compound: Cc1cc(Nc2ncn(-c3ccc(F)c(F)c3)n2)cc(OC2CCN(C3COC3)CC2)c1 [Compound 384, 1-(3,4-difluorophenyl)-N-[3-methyl-5-[[1-(oxetan-3-yl)-4-piperidyl]oxy]phenyl]-1,2,4-triazol-3-amine]
- fold induction at 1 µM [1]: 100 to 1000
- fold induction at 10 µM [2]: 100 to 1000

Compound: CCOCCN1CCN(c2cc(C)cc(Nc3ncn(-c4cc(F)cc(F)c4)n3)c2)CC1 [Compound 973, 1-(3,5-difluorophenyl)-N-[3-[4-(2-ethoxyethyl)piperazin-1-yl]-5-methyl-phenyl]-1,2,4-triazol-3-amine]
- fold induction at 1 µM [3]: 10 to 100
- fold induction at 10 µM [4]: ≤ 1

Compound: Cc1cc(Nc2ncn(-c3cc(F)cc(F)c3)n2)cc(N2CCN(C3CCCCC3O)CC2)c1 (stereo not shown) [Compound 878, 2-[4-[3-[[1-(3,5-difluorophenyl)-1,2,4-triazol-3-yl]amino]-5-methyl-phenyl]piperazin-1-yl]cyclohexanol]
- fold induction at 1 µM [3]: 10 to 100
- fold induction at 10 µM [4]: ≤ 1

Compound: COC(=O)c1cc(Nc2ncn(-c3cc(F)cc(F)c3)n2)nc(N2CCOCC2)c1 [Compound 675, methyl 2-[[1-(3,5-difluorophenyl)-1,2,4-triazol-3-yl]amino]-6-morpholino-pyridine-4-carboxylate]
- fold induction at 1 µM [5]: 1 to 10
- fold induction at 10 µM [6]: 1 to 10

Compound: Cc1cc(Nc2ncn(-c3cc(F)cc(F)c3)n2)cc(N2CCN(C3CC3)CC2)c1 [Compound 482, N-[3-(4-cyclopropylpiperazin-1-yl)-5-methyl-phenyl]-1-(3,5-difluorophenyl)-1,2,4-triazol-3-amine]
- fold induction at 1 µM [5]: 10 to 100
- fold induction at 10 µM [6]: 100 to 1000

Compound: Cc1cc(N2CC(N3CCOCC3)C2)cc(Nc2ncn(-c3cc(F)cc(F)c3)n2)c1F [Compound 870, 1-(3,5-difluorophenyl)-N-[2-fluoro-3-methyl-5-(3-morpholinoazetidin-1-yl)phenyl]-1,2,4-triazol-3-amine]
- fold induction at 1 µM [3]: 1 to 10
- fold induction at 10 µM [4]: 1 to 10

Compound: Cc1cc(Nc2ncn(-c3cccc(F)c3)n2)c(F)c(OC2CCOC2)c1 (single isomer, unassigned) [Compound 886, N-(2-fluoro-5-methyl-3-tetrahydrofuran-3-yloxy-phenyl)-1-(3-fluorophenyl)-1,2,4-triazol-3-amine]
- Fold myelin pixels above background relative to baseline of no added compound (1.0 μM compound): ++ (>10 to 100x)
- Fold myelin pixels above background relative to baseline of no added compound (10.0 μM compound): + (>1 to 10x)
